Assay results reported in patent US9658218B2, “Determination of total analyte concentration” (Siemens Healthcare Diagnostics Inc., priority 2012, dated 2017).

Legend:
[1] = tested on: endogeneous binding proteins; assay: ACMIA assay for tacrolimus on spiked whole blood samples with and without SIRO displacing agent (free vs bound tacrolimus); assay type: in vitro ADME; conditions: for Protein-Bound: +SIRO minus −SIRO; for +SIRO ng/mL (free plus bound tacrolimus): with SIRO displacer
Description: Testing is carried out using the DIMENSION® RxL analyzer, available from Siemens Healthcare Diagnostics Inc., Newark Del. The instrument is employed using ACMIA immunoassay technology. The ACMIA assay method is described in U.S. Pat. Nos. 7,186,518, 5,147,529, 5,128,103, 5,158,871, 4,661,408, 5,151,348, 5,302,532, 5,422,284, 5,447,870, and 5,434,051, the disclosures of which are incorporated herein in their entirety. In the embodiment of the ACMIA method used herein and discussed in more detail below, competition between tacrolimus analog on chrome particles and tacrolimus in patient samples for antibody for tacrolimus conjugated to an enzyme (the “conjugate”) is utilized to determine the amount of tacrolimus in patient samples. Conjugate that binds to the tacrolimus analog on chrome particles is removed by magnetic separation. The enzymatic activity from conjugate remaining in the supernatant is measured and is directly proportional to the amount of tacrolimus in the patient sample. In the ACMIA assay format employed, the enzymatic activity observed when testing a sample containing no tacrolimus is indicative of the amount of enzymatic activity that is not bound to active antibody (i.e., cannot bind tacrolimus on chrome particles). The enzymatic activity observed when no chrome particle is present is indicative of the total amount of enzymatic activity in the conjugate. These values can be used to estimate the percent of enzymatic activity bound to active antibody.
Tacrolimus-free whole blood pools are screened by running the above mentioned ACMIA assay to identify whole blood pools that are substantially free from endogenous interfering substances. The screening is carried out by examining the consistency of tacrolimus recoveries of the pools to the individual tacrolimus-free whole blood samples. If the recoveries of the majority of the tacrolimus-free whole blood samples are within the low end sensitivity of the assay when the pool is used as the tacrolimus-free calibrator, the pool is accepted as a matrix free from endogenous interfering substances. The pool is then used to make the tacrolimus calibrators (or standards) by spiking different amounts of pure tacrolimus into the pool. The calibrators (which are substantially free from endogenous interfering substances) are then employed to generated the relationship of [Z]=a[Y]+b during the method calibration, which is achieved by testing the calibrators in the presence and absence of a displacing agent (sirolimus). Both [Z] and [Y] are generated from the calibration. The [Z] values of the calibrators are generated by running the calibrators in the absence of the displacing agent (representing the free drug) and the [Y] values of the calibrators are generated by subtracting the [Z] value from the total drug measured in the presence of the displacing agent (representing the bound drug). Calibrators made from a whole blood pool that is substantially free from endogeneous interfering substances are selected for use in the experiments below.
The whole blood pool substantially free from endogeneous interfering substances identified above is used. Aliquots (100 mL) of the whole blood pool are spiked with various amounts of tacrolimus so that the resulting concentration of tacrolimus in the whole blood samples is 0, 2.8, 6.0, 11.9 and 31.3 ng/mL (samples I-V).
A set of samples I-V is treated as follows: To each sample is added a sirolimus (SIRO) displacing agent for displacing tacrolimus in the sample from endogeneous binding proteins. The formulation for the SIRO displacement solution is set forth in more detail in Table 1.
The samples are incubated at 37° C. for a period of 140 minutes in the presence of displacing agent to displace tacrolimus from endogeneous binding substances. […]

[2] = ACMIA assay for tacrolimus on unknown samples known to contain endogeneous interfering substances; conditions: for Estimated True: [Y]+[Z]; for Free drug: [Z]=0.218[Y]+0.0981
Description: Testing is carried out using the DIMENSION® RxL analyzer, available from Siemens Healthcare Diagnostics Inc., Newark Del. The instrument is employed using ACMIA immunoassay technology. The ACMIA assay method is described in U.S. Pat. Nos. 7,186,518, 5,147,529, 5,128,103, 5,158,871, 4,661,408, 5,151,348, 5,302,532, 5,422,284, 5,447,870, and 5,434,051, the disclosures of which are incorporated herein in their entirety. In the embodiment of the ACMIA method used herein and discussed in more detail below, competition between tacrolimus analog on chrome particles and tacrolimus in patient samples for antibody for tacrolimus conjugated to an enzyme (the “conjugate”) is utilized to determine the amount of tacrolimus in patient samples. Conjugate that binds to the tacrolimus analog on chrome particles is removed by magnetic separation. The enzymatic activity from conjugate remaining in the supernatant is measured and is directly proportional to the amount of tacrolimus in the patient sample. In the ACMIA assay format employed, the enzymatic activity observed when testing a sample containing no tacrolimus is indicative of the amount of enzymatic activity that is not bound to active antibody (i.e., cannot bind tacrolimus on chrome particles). The enzymatic activity observed when no chrome particle is present is indicative of the total amount of enzymatic activity in the conjugate. These values can be used to estimate the percent of enzymatic activity bound to active antibody. The ACMIA assay for tacrolimus is as follows: 15 μL of a whole blood samples I-V from above (substantially free from endogeneous interfering substances and spiked with tacrolimus) is mixed with the SIRO displacement solution (Table 1) in a vessel on the DIMENSION® RxL analyzer. The whole blood is sampled from a standard cup by first mixing the blood with the ultrasonic sample probe. The mixing of whole blood sample with the SIRO displacement solution ensures the displacement of the bound tacrolimus molecules from their binding sites when the SIRO molecules are present. As a result, the signal generated from this assay is related to the amount of free tacrolimus analyte plus the amount of displaced tacrolimus analyte (bound analyte) in the sample. Anti-tacrolimus antibody-β-galactosidase conjugate (50 μL) is added next to each of the reaction vessels and the mixture is held for a period of time (10 to 15 minutes) and at a temperature of 43° C. to allow tacrolimus, if present, to react with the antibody reagent. Chrome particles with immobilized tacrolimus-CM0-DA10-Dexal are added (50 μL) to each of the reaction vessels and are allowed to bind un-bound conjugate. […] The tacrolimus-bound conjugate is detected by transferring the supernatant from each of the reaction vessels to a photometric cuvette and measuring the enzymatic rate of the conjugate in the presence of chlorophenol red-β-D-galactopyranoside (CPRG). The rate for each reaction vessel is measured bichromatically at 577 and 700 nm. The above ACMIA assay is then carried out on unknown samples known to contain endogeneous interfering substances. Samples are obtained from various hospitals and are identified as set forth in first column of Table 3 below. The concentration of bound tacrolimus [Y] is determined as described above. The equation [Z]=0.218[Y]+0.0981 with the values for “a” and “b” determined as discussed above for this ACMIA assay is used to determine a concentration of free tacrolimus [Z] in the samples. The estimated true total concentration of tacrolimus [X] in each sample is determined by adding [Y]+[Z].

[3] = tested on: endogeneous binding proteins; assay: ACMIA assay for tacrolimus on spiked whole blood samples with and without SIRO displacing agent (free vs bound tacrolimus); assay type: in vitro ADME; conditions: without SIRO
[4] = ACMIA assay for tacrolimus on unknown samples known to contain endogeneous interfering substances

C=CC[C@@H]1/C=C(\C)C[C@H](C)C[C@H](OC)[C@H]2O[C@@](O)(C(=O)C(=O)N3CCCC[C@H]3C(=O)O[C@H](/C(C)=C/[C@@H]3CC[C@@H](O)[C@H](OC)C3)[C@H](C)[C@@H](O)CC1=O)[C@H](C)C[C@@H]2OC [tacrolimus]
Protein-Bound ([1]; BV 2.8 ng/mL): 2.1 ng/mL
+SIRO ng/mL (free plus bound tacrolimus) ([1]; BV 2.8 ng/mL): 2.8 ng/mL
Protein-Bound ([1]; BV 6.0 ng/mL): 4.9 ng/mL
+SIRO ng/mL (free plus bound tacrolimus) ([1]; BV 6.0 ng/mL): 6.0 ng/mL
Protein-Bound ([1]; BV 11.9 ng/mL): 9.7 ng/mL
+SIRO ng/mL (free plus bound tacrolimus) ([1]; BV 11.9 ng/mL): 11.9 ng/mL
Protein-Bound ([1]; BV 31.3 ng/mL): 25.6 ng/mL
+SIRO ng/mL (free plus bound tacrolimus) ([1]; BV 31.3 ng/mL): 31.3 ng/mL
Bound drug ([2]; sample 09-238-057): 0.0 ng/mL
ng/mL + displacer ([2]; sample 09-238-057): 32.7 ng/mL
ng/mL − displacer ([2]; sample 09-238-057): 36.1 ng/mL
Estimated True ([2]; sample 09-238-057): 0.0 ng/mL
Free drug ([2]; sample 09-238-057): 0.0 ng/mL
Bound drug ([2]; sample 109): 0.0 ng/mL
ng/mL + displacer ([2]; sample 109): 16.4 ng/mL
ng/mL − displacer ([2]; sample 109): 21.3 ng/mL
Estimated True ([2]; sample 109): 0.0 ng/mL
Free drug ([2]; sample 109): 0.0 ng/mL
Bound drug ([2]; sample 864408): 2.3 ng/mL
ng/mL + displacer ([2]; sample 864408): 27.7 ng/mL
Estimated True ([2]; sample 864408): 2.9 ng/mL
Free drug ([2]; sample 864408): 0.6 ng/mL
Bound drug ([2]; sample Dussel): 2.3 ng/mL
ng/mL + displacer ([2]; sample Dussel): 14.4 ng/mL
Estimated True ([2]; sample Dussel): 2.9 ng/mL
Free drug ([2]; sample Dussel): 0.6 ng/mL
Bound drug ([2]; sample FP15): 7.1 ng/mL
ng/mL + displacer ([2]; sample FP15): 10.9 ng/mL
Estimated True ([2]; sample FP15): 8.7 ng/mL
Free drug ([2]; sample FP15): 1.6 ng/mL
−SIRO ng/mL (free tacrolimus) ([3]; BV 2.8 ng/mL): 0.7 ng/mL
−SIRO ng/mL (free tacrolimus) ([3]; BV 6.0 ng/mL): 1.2 ng/mL
−SIRO ng/mL (free tacrolimus) ([3]; BV 11.9 ng/mL): 2.2 ng/mL
−SIRO ng/mL (free tacrolimus) ([3]; BV 31.3 ng/mL): 5.7 ng/mL
ng/mL − displacer ([4]; sample 864408): 25.4 ng/mL
ng/mL − displacer ([4]; sample Dussel): 12.2 ng/mL
ng/mL − displacer ([4]; sample FP15): 3.8 ng/mL
